Measurements from article PMC2730992 (Molecular and biochemical parasitology, 2009).

Legend:
Tb AdoMetDC/Tc Prozyme = target: T1, Tb AdoMetDC/Tc Prozyme (Trypanosoma brucei, UniProt P50244); assay type: biochemical; conditions: 5 mM putrescine; allosteric activator; pH 8.0, 37 °C
T1 sequence (P50244 1-85): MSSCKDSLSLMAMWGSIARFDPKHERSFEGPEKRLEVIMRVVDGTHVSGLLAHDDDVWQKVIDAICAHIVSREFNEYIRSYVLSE
T1 sequence (P50244 86-370): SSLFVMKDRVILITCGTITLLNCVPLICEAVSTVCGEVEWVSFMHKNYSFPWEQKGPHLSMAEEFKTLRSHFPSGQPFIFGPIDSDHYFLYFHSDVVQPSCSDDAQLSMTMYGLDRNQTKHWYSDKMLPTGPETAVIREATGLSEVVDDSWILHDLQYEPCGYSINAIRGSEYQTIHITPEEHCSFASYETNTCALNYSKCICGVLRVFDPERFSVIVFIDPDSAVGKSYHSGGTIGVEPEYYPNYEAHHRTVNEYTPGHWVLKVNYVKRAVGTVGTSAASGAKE
T1 sequence (Q4DQQ6 1-326 partner): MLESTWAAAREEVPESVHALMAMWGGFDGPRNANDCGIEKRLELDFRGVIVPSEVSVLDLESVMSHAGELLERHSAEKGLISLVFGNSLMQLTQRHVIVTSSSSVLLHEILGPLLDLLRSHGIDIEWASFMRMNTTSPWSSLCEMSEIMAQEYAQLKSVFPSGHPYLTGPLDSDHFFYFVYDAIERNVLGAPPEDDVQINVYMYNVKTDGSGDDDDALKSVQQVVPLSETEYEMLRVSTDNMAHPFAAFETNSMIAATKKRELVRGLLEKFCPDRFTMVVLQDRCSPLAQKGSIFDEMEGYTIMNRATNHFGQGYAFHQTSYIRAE

Tc AdoMetDC/Tb Prozyme = target: T2, Tc AdoMetDC/Tb Prozyme (Trypanosoma cruzi, UniProt O76240); assay type: biochemical; conditions: 5 mM putrescine; allosteric activator; pH 8.0, 37 °C
T2 sequence (O76240 1-85): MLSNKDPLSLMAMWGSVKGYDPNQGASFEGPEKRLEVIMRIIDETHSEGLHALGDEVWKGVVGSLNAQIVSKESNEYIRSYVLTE
T2 sequence (O76240 86-370): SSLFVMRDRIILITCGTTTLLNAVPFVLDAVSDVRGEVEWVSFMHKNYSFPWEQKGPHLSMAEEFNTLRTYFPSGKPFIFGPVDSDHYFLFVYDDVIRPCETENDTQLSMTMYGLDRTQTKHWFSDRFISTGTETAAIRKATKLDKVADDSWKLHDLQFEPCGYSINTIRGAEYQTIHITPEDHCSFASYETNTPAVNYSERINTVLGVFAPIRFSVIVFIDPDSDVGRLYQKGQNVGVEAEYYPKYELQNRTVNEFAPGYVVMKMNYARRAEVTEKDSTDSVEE
T2 sequence (A5HNV6 1-325 partner): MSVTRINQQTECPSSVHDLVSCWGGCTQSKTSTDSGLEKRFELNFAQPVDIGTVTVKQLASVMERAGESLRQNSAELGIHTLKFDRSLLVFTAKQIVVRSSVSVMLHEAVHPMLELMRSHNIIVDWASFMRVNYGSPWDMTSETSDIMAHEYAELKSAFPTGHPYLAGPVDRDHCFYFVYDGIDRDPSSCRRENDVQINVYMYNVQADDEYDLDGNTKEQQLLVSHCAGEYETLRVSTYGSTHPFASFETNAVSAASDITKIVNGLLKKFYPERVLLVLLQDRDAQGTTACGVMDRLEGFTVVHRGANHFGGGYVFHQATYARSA

purified protein = substrate: C[S+](CC[C@H](N)C(=O)O)C[C@H]1O[C@@H](n2cnc3c(N)ncnc32)[C@H](O)[C@@H]1O; test: purified protein; conditions: pH 8.0; 37.0 °C

Q: Which “activation of AdoMet decarboxylation, 14CO2 trapping” value (Tb AdoMetDC/Tc Prozyme) does the source give for `NCCCCN` [putrescine] here?
A: when putrescine was included, both cross-species heterodimers were further activated

Q: What about the “activation of AdoMet decarboxylation, 14CO2 trapping” value (Tc AdoMetDC/Tb Prozyme) of the same molecule?
A: when putrescine was included, both cross-species heterodimers were further activated

B1: Tc AdoMetDC/Tb Prozyme (Trypanosoma cruzi) (protein)
chain 1: MLSNKDPLSLMAMWGSVKGYDPNQGASFEGPEKRLEVIMRIIDETHSEGLHALGDEVWKGVVGSLNAQIVSKESNEYIRSYVLTE
chain 2: SSLFVMRDRIILITCGTTTLLNAVPFVLDAVSDVRGEVEWVSFMHKNYSFPWEQKGPHLSMAEEFNTLRTYFPSGKPFIFGPVDSDHYFLFVYDDVIRPCETENDTQLSMTMYGLDRTQTKHWFSDRFISTGTETAAIRKATKLDKVADDSWKLHDLQFEPCGYSINTIRGAEYQTIHITPEDHCSFASYETNTPAVNYSERINTVLGVFAPIRFSVIVFIDPDSDVGRLYQKGQNVGVEAEYYPKYELQNRTVNEFAPGYVVMKMNYARRAEVTEKDSTDSVEE
Q: With B1 as the molecule, how does the Km (purified protein) read?
A: 440 ± 14 µM
